Consider twelve compounds from article PMC7288428, “Amaryllidaceae alkaloids with anti-Trypanosoma cruzi activity” (Parasites & Vectors, 2020).

Each structure is given as a SMILES string. Values after ≈ are worked out from the molar mass of the structure shown. Values joined by “and” are separate entries in the source; they are usually repeats but may differ in a detail not shown here. Identical values can stand only once. Counter-ions that a name gives are not always drawn. Like-named read-outs stand apart in the source and are kept apart here.

The test system of data set [1] is protozoa. Further details: method as in ref 28, 29 = [28]; PMID 15541744; doi:10.1016/j.phytochem.2004.10.004; 28. Machocho AK Bastida J Codina C Viladomat F Brun R Chabra SC Augustamine type alkaloids from Crinum kirkii Phytochemistry. 2004 65 3143 3149 15541744 10.1016/j.phytochem.2004.10.004 || [29]; 29. Osorio EJ Berkov S Brun R Codina C Viladomat F Cabezas F In vitro antiprotozoal activity of alkaloids from Phaedranassa dubia (Amaryllidaceae) Phytochem Lett. 2010 3 161 163. To be noted: cited from earlier work.

The test system of data set [2] is trypomastigotes from the T. cruzi strain Tulahuen C4. Further details: method as in ref 28 = [28]; PMID 15541744; doi:10.1016/j.phytochem.2004.10.004; 28. Machocho AK Bastida J Codina C Viladomat F Brun R Chabra SC Augustamine type alkaloids from Crinum kirkii Phytochemistry. 2004 65 3143 3149 15541744 10.1016/j.phytochem.2004.10.004. The conditions noted are these: cited from earlier work.

Data set [3] deals with Vero cells. Briefly: Vero cell toxicity assay (Alamar Blue). To be noted: 4 days, mean (SD in text).
The subject of data set [4] is HepG2 cells. As to the kind of experiment: HepG2 cell toxicity assay (Alamar Blue). The conditions noted are these: 2 days, mean (SD in text).
Data set [5] relates to T. cruzi intracellular amastigote forms. Briefly: Anti-amastigote specific activity assay (Vero host cells). The data set is classed as cell-based. The conditions noted are these: Trypanosoma cruzi, 96 h, read-out: anti-amastigote activity (IC50).
Data set [6] relates to T. cruzi. Further details: method as in earlier work. The conditions noted are these: cited from earlier work.
The subject of data set [7] is HepG2 cells. Further details: method as in PMID 7701000. The conditions noted are these: cited from earlier work.
Data set [8] deals with avian influenza virus H5N1. The conditions noted are these: read-out: IC50 against avian influenza virus H5N1; cited from earlier work.
Data set [9] has as its system T. cruzi. Details: method as in PMID 9810280, PMID 11301878, PMID 22673940. The conditions noted are these: L6 cells as host; cited from earlier work.
In data set [10] the test system is ZIKA virus. Details: method as in PMID 28736217. To be noted: cited from earlier work.
Data set [11] has as its system ZIKA virus. Details: method as in PMID 28736217. The conditions noted are these: human forebrain organoids; cited from earlier work.
The test system of data set [12] is ZIKA virus. Further details: method as in PMID 28736217. The conditions noted are these: cited from earlier work. The source holds these as a separate data set.

For the compound `CC(=O)O[C@@H]1CC=C2CCN3Cc4cc5c(cc4[C@H]1[C@@H]23)OCO5` [1-O-acetylcaranine], the “antiprotozoal activity described before” value in [1] is “poor antiprotozoal agents”.
With `CC(=O)O[C@H]1C=C[C@@]23CCN(C)Cc4ccc(O)c(c42)O[C@H]3C1` [3-O-acetylsanguinine], the IC50 against trypomastigotes in data set [2] was 2.3 µg/mL (≈ 7.29 µM). Moreover, in [2] (converted from μg/ml, read-out: IC50 against trypomastigotes), the IC50 is 7.29 µM.
With `O=C(Cn1ccnc1[N+](=O)[O-])NCc1ccccc1` [BNZ, benznidazole, reference compound], the “TC50, Vero cell toxicity assay” value in data set [3] is 173.4 (43.57) µM and 173.4 µM. Besides, in data set [4], the “TC50, HepG2 cell toxicity assay” value amounted to 168.76 µM. Besides, the IC50 in data set [5] (intracellular amastigotes in Vero cells, mean (SD)) came to 1.2 µM.
Take `COC1C=CC23c4cc5c(cc4CN(CC2O)C3C1)OCO5` (centres unmarked) [Haemanthamine, haemanthamine]: in data set [6], the “IC50 against T. cruzi” value was 1.8 µg/mL (≈ 5.97 µM). The IC50 in data set [6] (converted from µg/ml, read-out: IC50 against T. cruzi) was 5.97 µM. In addition, the “TC50, Vero cell toxicity assay” value in data set [3] is 11.52 µM. Besides, the “TC50 for HepG2 cells” value is 13 µg/mL in data set [7] and 43.14 µM in data set [7] (converted from µg/ml). Also, the “TC50, HepG2 cell toxicity assay” value in data set [4] was 42.48 (6.96) µM and 42.48 µM.
With `CN1CCC2=C[C@H](O)[C@H]3OC(=O)c4cc5c(cc4[C@H]3[C@@H]21)OCO5` [Hippeastrine, hippeastrine], the “TC50, Vero cell toxicity assay” value in data set [3] was 45.99 µM; in [3] (listed as hippeastrine), 45.99 (6.32) µM. In addition, the “TC50 for HepG2 cells” value is 40 µg/mL in [7] and 126.85 µM in data set [7] (converted from µg/ml). Moreover, the “TC50, HepG2 cell toxicity assay” value was 128.10 µM in data set [4] and 128.1 (12.26) µM in data set [4] (listed as hippeastrine). The results for the IC50 in data set [5] (Vero) and in data set [8] were 3.31 µM and 47.5 µM, respectively.
As to `O[C@H]1[C@H]2c3cc4c(cc3CN3CCC(=C[C@@H]1O)[C@H]23)OCO4` [Lycorine, lycorine], the “TC50, Vero cell toxicity assay” value in [3] was 5.21 µM; in data set [3] (listed as lycorine) it was 5.21 (0.80) µM. Also, in data set [9], the “activity against T. cruzi in previous studies” value is “inactive”. Also, the “TC50, HepG2 cell toxicity assay” value in data set [4] is 21.87 µM; in data set [4] (listed as lycorine), 21.87 (4.16) µM.
Consider `CO[C@H]1C=C2[C@H]3C[N@@](Cc4cc5c(cc43)OCO5)[C@H]2C[C@@H]1O` [Montanine, montanine], for which the “TC50, Vero cell toxicity assay” value in [3] came to 5.04 µM. The “TC50, HepG2 cell toxicity assay” value in data set [4] is on record as 46.10 µM; in data set [4] (listed as montanine) it was 46.1 (11.99) µM.
For the compound `O=C1N[C@@H]2C(=C[C@H](O)[C@@H](O)[C@H]2O)c2cc3c(c(O)c21)OCO3` [Narciclasine, narciclasine], the “TC50, Vero cell toxicity assay” value in [3] is recorded as 0.66 µM; in data set [3] (listed as narciclasine), 0.66 (0.082) µM. In addition, the entries for the “TC50, HepG2 cell toxicity assay” value in [4] and in data set [4] (listed as narciclasine) were 2.73 µM and 2.73 (0.67) µM, respectively.
`CN1CC[C@@]23C=C[C@H](O)C[C@@H]2Oc2c(O)ccc(c23)C1` [Sanguinine, sanguinine]: the “antiprotozoal activity described before” value in data set [1] is “poor antiprotozoal agents”.
For `CO[C@@H]1C=C[C@@]23c4cc5c(cc4CO[C@]2(O)CN(C)[C@H]3C1)OCO5` [Tazettine, tazettine], the “antiprotozoal activity described before” value in data set [1] is “poor antiprotozoal agents”.
For the compound `C[C@H]1O[C@@H](O[C@H]2[C@@H](O)C[C@H](O[C@H]3[C@@H](O)C[C@H](O[C@H]4CC[C@@]5(C)[C@H](CC[C@@H]6[C@@H]5CC[C@]5(C)[C@@H](C7=CC(=O)OC7)CC[C@]65O)C4)O[C@@H]3C)O[C@@H]2C)C[C@H](O)[C@@H]1O` [digitoxin, reference compound], the “TC50, HepG2 cell toxicity assay” value in [4] is 0.29 (0.14) µM.
Turning to `CN1CCC2=C[C@H](O)[C@H]3OC(=O)c4cc5c(cc4[C@H]3[C@@H]21)OCO5` [hippeastrine hydrobromide], the “effect on virus propagation in infected adult mice” value in data set [10] is “suppress virus propagation in infected adult mice”. The “effect on ZIKV-induced microcephaly phenotype” value in data set [11] is listed as “recover a ZIKV-induced microcephaly phenotype in human forebrain organoids”. Further, in data set [12], the “effect on ZIKA virus in infected human neural progenitors” value is given as “remove ZIKA virus from infected human neural progenitors”.
